Laboratory results: patent US4221811A, “Antifungal and/or antibacterial organotin compounds, and use” (priority 1977, dated 1980)

How the values were obtained:
Type in all cases: cell-based
Penicillium italicum = settings: after three days, glucose-agar, pH~6.9-7.0
Description: (§1) Antifungal activity of organotin compounds. Minimal concentra-
(§2) tion (mg/l) causing complete inhibition of visible growth (MIC;
(§3) after three days). -Test medium: glucose-agar; pH~6.9-7.0.

Botrytis allii = settings: after three days, glucose-agar, pH~6.9-7.0
Description: as §1, §2, §3

Cladosporium cucumerinum = settings: after three days, glucose-agar, pH~6.9-7.0
Description: as §1, §2, §3

Aspergillus niger = settings: after three days, glucose-agar, pH~6.9-7.0
Description: as §1, §2, §3

P. fluorescens = P. fluorescens (Gram-neg.); after three days; peptone-glucose agar; pH ~ 6.9-7.0
Description: (§4) Antibacterial activity of organotin compounds. Minimal concentration
(§5) causing complete inhibition of visible growth (MIC; after three days).
(§6) Test medium: peptone-glucose agar; pH ~ 6.9-7.0.

E. coli = E. coli (Gram-neg.); after three days; peptone-glucose agar; pH ~ 6.9-7.0
Description: as §4, §5, §6

B. subtilis = B. subtilis (Gram-pos.); after three days; peptone-glucose agar; pH ~ 6.9-7.0
Description: as §4, §5, §6

S. lactis = S. lactis (Gram-pos.); after three days; peptone-glucose agar; pH ~ 6.9-7.0
Description: as §4, §5, §6

Structure (SMILES) | Minimal concentration causing complete inhibition of visible growth (MIC) (Penicillium italicum) [µg/mL] | Minimal concentration causing complete inhibition of visible growth (MIC) (Botrytis allii) [µg/mL] | Minimal concentration causing complete inhibition of visible growth (MIC) (Cladosporium cucumerinum) [µg/mL] | Minimal concentration causing complete inhibition of visible growth (MIC) (Aspergillus niger) [µg/mL] | Minimal concentration causing complete inhibition of visible growth (MIC) (P. fluorescens) [µg/mL] | Minimal concentration causing complete inhibition of visible growth (MIC) (E. coli) [µg/mL] | Minimal concentration causing complete inhibition of visible growth (MIC) (B. subtilis) [µg/mL] | Minimal concentration causing complete inhibition of visible growth (MIC) (S. lactis) [µg/mL]
CCC[CH2][Sn]([CH2]CCC)([CH2]CCC)[CH2]CC(N)=O [Bu3 Sn(CH2)2 CONH2] | ≤ 10 | ≤ 10 | ≤ 10 | ≤ 20 | 300 | > 1000 | 3 | 10
CCC[CH2][Sn]([CH2]CCC)([CH2]CCC)[CH2]CCCN [Bu3 Sn(CH2)4 NH2] | – | – | – | – | 300 | 300 | 3 | 3
CCC[CH2][Sn]([CH3])([CH2]CCC)[CH2]CCNCCCN(C)C [MeBu2 Sn(CH2)3 NH(CH2)3 NMe2, N-[3-(methyldibutylstannyl)propyl-N', N'-dimethyltrimethylene]diamine] | ≤ 10 | ≤ 10 | 50 | 50 | 10 | 10 | 10 | 10
O=C([CH2][Sn]([c]1ccccc1)([c]1ccccc1)[c]1ccccc1)[O][Sn]([c]1ccccc1)([c]1ccccc1)[c]1ccccc1 [Ph3 SnCH2 COOSnPh3] | ≤ 10 | ≤ 10 | – | ≤ 10 | – | – | – | –
CC[N+](C)(CC)CC[CH2][Sn]([c]1ccccc1)([c]1ccccc1)[c]1ccccc1.[I-] [Ph3 Sn(CH2)3 NEt2 MeI] | 500 | 50 | – | > 1000 | – | – | – | –
CCC[CH2][Sn]([CH2]CCC)([CH2]CCN(C)C)[CH2]CCN(C)C [Bu2 Sn[(CH2)3 NMe2]2] | 100 | 50 | 500 | > 500 | 300 | 100 | 100 | 100
CCC[CH2][Sn]([CH2]CCC)([CH2]CCC)[CH2]CCC [Bu4 Sn, reference compound] | > 500 | > 500 | > 500 | > 500 | > 500 | > 500 | > 500 | > 500
CCC[CH2][Sn]([CH2]CCC)([CH2]CCC)[CH2]CC[N+](C)(C)C.[I-] [Bu3 Sn(CH2)3 NMe3 I] | 50 | ≤ 10 | 20 | 50 | 300 | 30 | ≤ 1 | ≤ 1
CCC[CH2][Sn]([CH2]CCC)([CH2]CC[N+](C)(C)C)[CH2]CC[N+](C)(C)C.[I-].[I-] [Bu2 Sn[(CH2)3 NMe3 I]2, Bis(trimethylammoniopropyl)dibutyltin diiodide] | 200 | 200 | > 500 | > 500 | > 1000 | > 1000 | 300 | 300
CCCC[CH2][Sn]([CH2]CCCC)([CH2]CCCC)[CH2]CC[N+](C)(C)C.[I-] [Pent3 Sn(CH2)3 NMe3 I] | 20 | ≤ 10 | 20 | 20 | – | – | – | –
CCC[CH2][Sn]([CH2]CCC)([CH2]CCC)[O]C(C)=O [Bu3 SnOAc, reference compound] | 0.5 | 0.5 | 1 | 1 | 100 | > 500 | 2 | 5
CCC[CH2][Sn]([CH2]C#N)([CH2]CCC)[CH2]CCC [Bu3 SnCH2 CN] | 5 | 20 | – | 1 | – | – | – | –
CCC[CH2][Sn]([CH2]CCC)([CH2]CCC)[CH2]CCO [Bu3 Sn(CH2)3 OH] | 100 | 50 | 100 | 100 | > 1000 | > 1000 | 1000 | 300
C[N+](C)(C)CC[CH2][Sn]([c]1ccccc1)([c]1ccccc1)[c]1ccccc1.[I-] [Ph3 Sn(CH2)3 NMe3 I] | 200 | 20 | 500 | > 500 | 1000 | 1000 | 10 | 10
CCC[CH2][Sn]([CH2]CCC)([CH2]CCC)[CH2]CCN [Bu3 Sn(CH2)3 NH2] | 2 | – | 5 | 20 | – | – | – | –
